Measurements taken from the supplement of paper PMC10307832.

Assays:
Assay in all cases: relative viability (nuclei count vs DMSO), 5 days (fraction); higher = more cells survive
Daporinad + Crizotinib = compound: O=C(/C=C/c1cccnc1)NCCCCC1CCN(C(=O)c2ccccc2)CC1 [Daporinad] + C[C@@H](Oc1cc(-c2cnn(C3CCNCC3)c2)cnc1N)c1c(Cl)ccc(F)c1Cl [Crizotinib] (partner 1 µM)
In short: (§1)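 Values are medians from duplicate plates. Each reflects relative viability, defined as the nuclei count of treated wells over that of vehicle wells. Lung cancer cell lines in 1536-well plates were pin-tool dosed one day after seeding with one drug alone or with a fixed anchor-drug dose plus five library-drug doses (not always all listed) in √10 steps, then fixed, stained and imaged at 4× after 5 days.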

R406 + Palbociclib = compound: COc1cc(Nc2ncc(F)c(Nc3ccc4c(n3)NC(=O)C(C)(C)O4)n2)cc(OC)c1OC [R406] + CC(=O)c1c(C)c2cnc(Nc3ccc(N4CCNCC4)cn3)nc2n(C2CCCC2)c1=O [Palbociclib] (partner 0.5 µM)
In short: as §1

Daporinad + Decitabine = compound: O=C(/C=C/c1cccnc1)NCCCCC1CCN(C(=O)c2ccccc2)CC1 [Daporinad] + Nc1ncn([C@H]2C[C@H](O)[C@@H](CO)O2)c(=O)n1 [Decitabine] (partner 2 µM)
In short: as §1

R406 + AZD7762 = compound: COc1cc(Nc2ncc(F)c(Nc3ccc4c(n3)NC(=O)C(C)(C)O4)n2)cc(OC)c1OC [R406] + NC(=O)Nc1cc(-c2cccc(F)c2)sc1C(=O)N[C@H]1CCCNC1 [AZD7762] (partner 0.2 µM)
In short: as §1

| Cell Line | relative viability (Daporinad + Crizotinib; first compound 0.0005 µM) | relative viability (Daporinad + Crizotinib; first compound 0.001581 µM) | relative viability (Daporinad + Crizotinib; first compound 0.005 µM) | relative viability (Daporinad + Crizotinib; first compound 0.01581 µM) | relative viability (R406 + Palbociclib; first compound 0.08 µM) | relative viability (R406 + Palbociclib; first compound 0.253 µM) | relative viability (R406 + Palbociclib; first compound 0.8 µM) | relative viability (R406 + Palbociclib; first compound 2.53 µM) | relative viability (R406 + Palbociclib; first compound 8 µM) | relative viability (Daporinad + Decitabine; first compound 0.0005 µM) | relative viability (Daporinad + Decitabine; first compound 0.005 µM) | relative viability (Daporinad + Decitabine; first compound 0.01581 µM) | relative viability (R406 + AZD7762; first compound 0.08 µM) | relative viability (R406 + AZD7762; first compound 0.253 µM) | relative viability (R406 + AZD7762; first compound 0.8 µM) | relative viability (R406 + AZD7762; first compound 2.53 µM) | relative viability (R406 + AZD7762; first compound 8 µM) | relative viability (Daporinad + Decitabine; first compound 0.001581 µM) |
| --- | --- | --- | --- | --- | --- | --- | --- | --- | --- | --- | --- | --- | --- | --- | --- | --- | --- | --- |
| HCC-366 | 0.696 | 0.628 | 0.864 | 0.634 | 0.36 | 0.465 | 0.387 | 0.262 | 0.0616 | 0.413 | 0.368 | 0.321 | 0.269 | 0.294 | 0.368 | 0.267 | 0.243 |  |
| NCI-H2170 | 1.19 | 0.723 | 1.2 | 1.27 | 0.379 | 0.393 | 0.452 | 0.264 | 0.419 | 0.491 | 0.444 | 0.439 | 0.81 | 0.766 | 0.948 | 0.596 | 0.708 | 0.446 |
| NCI-H727 | 0.713 | 0.786 | 0.938 | 0.698 | 0.621 | 0.702 | 0.752 | 0.652 | 0.609 | 0.822 | 1 | 0.67 | 0.675 | 0.666 | 0.535 | 0.681 | 0.747 | 0.903 |
| RERF-LC-KJ | 0.787 | 0.861 | 1.06 | 0.803 | 1.04 | 1.19 | 1.07 | 0.883 | 0.86 | 0.565 | 0.758 | 0.827 | 1 | 1.23 | 1.29 | 0.692 | 0.988 | 0.697 |
| NCI-H2342 |  |  |  |  | 0.518 | 0.508 | 0.504 | 0.474 | 0.509 | 0.814 | 0.67 | 0.72 | 0.505 | 0.53 | 0.476 | 0.433 | 0.392 | 0.58 |
| Calu-6 | 0.902 | 0.846 | 0.797 | 0.514 |  |  |  |  |  |  |  |  |  |  |  |  |  |  |
| LC-2-ad | 0.501 | 0.513 | 0.491 | 0.46 | 0.414 | 0.571 | 0.501 | 0.408 | 0.277 | 0.769 | 0.743 | 0.838 | 0.856 | 0.898 | 0.89 | 0.827 | 0.343 | 0.882 |
| CAL-12T | 0.659 | 0.535 | 0.367 | 0.185 | 0.425 | 0.612 | 0.549 | 0.142 | 0.158 |  |  |  | 0.531 | 0.641 | 0.695 | 0.714 | 0.637 |  |
| SK-LU-1 | 0.942 | 0.958 | 1.18 | 0.892 | 0.392 | 0.423 | 0.367 | 0.258 | 0.191 | 0.656 | 0.671 | 0.692 |  |  |  |  |  | 0.683 |
| NCI-H1650 | 1.12 | 1.09 | 1 | 0.764 | 0.337 | 0.345 | 0.396 | 0.117 | 0.0985 | 0.402 | 0.458 | 0.327 |  |  |  |  |  | 0.396 |
| BEN | 0.849 | 0.879 | 0.91 | 1.1 | 0.439 | 0.502 | 0.495 | 0.561 | 0.422 | 0.799 | 0.803 | 0.835 | 0.816 | 0.814 | 0.796 | 0.828 | 0.523 | 0.783 |
